Measured values: patent publication US20260262643A1, “HERBICIDAL BENZOXAZINES” (FMC CORPORATION, priority 2022, published 2026)

Key:
[1] = test system: blackgrass; experiment: Test C preemergence; format: in vivo, Alopecurus myosuroides; conditions: 0 to 100 scale (0 no effect, 100 complete control)
Summary of the method: (§1)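 Greenhouse herbicide screen, 10-day duration. Test chemicals in solvent/surfactant blend were sprayed onto soil at sowing (pre) or onto 2–10 cm seedlings at one to two leaves (post); injury scored visually against controls, 0 no effect to 100 complete control.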

[2] = test system: corn; experiment: Test C preemergence; format: in vivo, Zea mays; conditions: preemergence, 0 to 100 scale (0 no effect, 100 complete control)
Summary of the method: as §1

[3] = test system: foxtail, giant; experiment: Test C preemergence; format: in vivo, Setaria faberi; conditions: preemergence, 0 to 100 scale (0 no effect, 100 complete control)
Summary of the method: as §1

[4] = test system: goosegrass; experiment: Test C preemergence; format: in vivo, Eleusine indica; conditions: preemergence, 0 to 100 scale (0 no effect, 100 complete control)
Source text: (§2) Seeds of plant species selected from barnyardgrass (Echinochloa crusgalli), blackgrass (Alopecurus myosuroides), corn (Zea mays), foxtail, giant (giant foxtail, Setaria faberi), green foxtail (Setaria viridis), goosegrass (Eleusine indica), kochia (Bassia scoparia), oat, wild (wild oat, Avena fatua), pigweed, palmer (palmer amaranth, palmer pigweed, Amaranthus palmeri), Pigweed, Redroot (redroot pigweed, Amaranthus retroflexus), ragweed (common ragweed, Ambrosia artemisiifolia), ryegrass, Italian ([…] ryegrass, Lolium multiflorum), soybean (Glycine max), and wheat (Triticum aestivum) were planted into a blend of loam soil and sand and treated preemergence with a directed soil spray using test chemicals formulated in a non-phytotoxic solvent mixture which included a surfactant. At the same time, plants selected from these crops and weed species and also galium (catchweed bedstraw, Galium aparine) and horseweed (Erigeron canadensis) were planted in pots containing the same blend of loam soil and sand and treated with postemergence applications of test chemicals formulated in the same manner. Plants ranged in height from 2 to 10 cm and were in the one- to two-leaf stage for the postemergence treatment. Treated plants and untreated controls were maintained in a greenhouse for 10 days, after which time all treated plants were compared to untreated controls and visually evaluated for injury. Plant response ratings, summarized in Table C, are based on a 0 to 100 scale where 0 is no effect and 100 is complete control. A dash (-) response means no test result.

[5] = test system: kochia; experiment: Test C preemergence; format: in vivo, Bassia scoparia; conditions: preemergence, 0 to 100 scale (0 no effect, 100 complete control)
Summary of the method: as §1

[6] = test system: oat, wild; experiment: Test C preemergence; format: in vivo, Avena fatua; conditions: preemergence, 0 to 100 scale (0 no effect, 100 complete control)
Summary of the method: as §1

[7] = test system: pigweed, palmer; experiment: Test C preemergence; format: in vivo, Amaranthus palmeri; conditions: preemergence, 0 to 100 scale (0 no effect, 100 complete control)
Summary of the method: as §1

[8] = test system: ragweed; experiment: Test C preemergence; format: in vivo, Ambrosia artemisiifolia; conditions: preemergence, 0 to 100 scale (0 no effect, 100 complete control)
Summary of the method: as §1

[9] = test system: ryegrass, Italian; experiment: Test C preemergence; format: in vivo, Lolium multiflorum; conditions: preemergence, 0 to 100 scale (0 no effect, 100 complete control)
Summary of the method: as §1

[10] = test system: soybean; experiment: Test C preemergence; format: in vivo, Glycine max; conditions: preemergence, 0 to 100 scale (0 no effect, 100 complete control)
Summary of the method: as §1

[11] = test system: wheat; experiment: Test C preemergence; format: in vivo, Triticum aestivum; conditions: preemergence, 0 to 100 scale (0 no effect, 100 complete control)
Summary of the method: as §1

[12] = test system: blackgrass; experiment: Test C postemergence; format: in vivo, Alopecurus myosuroides; conditions: 10 days
Summary of the method: as §1

[13] = test system: corn; experiment: Test C postemergence; format: in vivo, Zea mays; conditions: 10 days
Summary of the method: as §1

[14] = test system: foxtail, giant; experiment: Test C postemergence; format: in vivo, Setaria faberi; conditions: 10 days
Summary of the method: as §1

[15] = test system: goosegrass; experiment: Test C postemergence; format: in vivo, Eleusine indica; conditions: 10 days
Source text: as §2

[16] = test system: kochia; experiment: Test C postemergence; format: in vivo, Bassia scoparia; conditions: 125 g ai/ha, postemergence, 10 days; 0 to 100 scale, 0 no effect, 100 complete control
Summary of the method: as §1

[17] = test system: oat, wild; experiment: Test C postemergence; format: in vivo, Avena fatua; conditions: 125 g ai/ha, postemergence, 10 days; 0 to 100 scale, 0 no effect, 100 complete control
Summary of the method: as §1

[18] = test system: pigweed, palmer; experiment: Test C postemergence; format: in vivo, Amaranthus palmeri; conditions: 125 g ai/ha, postemergence, 10 days; 0 to 100 scale, 0 no effect, 100 complete control
Summary of the method: as §1

[19] = test system: ragweed; experiment: Test C postemergence; format: in vivo, Ambrosia artemisiifolia; conditions: 125 g ai/ha, postemergence, 10 days; 0 to 100 scale, 0 no effect, 100 complete control
Summary of the method: as §1

[20] = test system: ryegrass, Italian; experiment: Test C postemergence; format: in vivo, Lolium multiflorum; conditions: 125 g ai/ha, postemergence, 10 days; 0 to 100 scale, 0 no effect, 100 complete control
Summary of the method: as §1

[21] = test system: soybean; experiment: Test C postemergence; format: in vivo, Glycine max; conditions: 125 g ai/ha, postemergence, 10 days; 0 to 100 scale, 0 no effect, 100 complete control
Summary of the method: as §1

[22] = test system: wheat; experiment: Test C postemergence; format: in vivo, Triticum aestivum; conditions: 125 g ai/ha, postemergence, 10 days; 0 to 100 scale, 0 no effect, 100 complete control
Summary of the method: as §1

[23] = test system: galium; experiment: Test C postemergence; format: in vivo, Galium aparine; conditions: 10 days
Summary of the method: as §1

[24] = test system: horseweed; experiment: Test C postemergence; format: in vivo, Erigeron canadensis; conditions: 10 days
Summary of the method: as §1

[25] = test system: barnyardgrass; experiment: Test D flooded paddy test; format: in vivo, Echinochloa crus-galli; conditions: 250 g ai/ha, applied to paddy water, visual rating after 13 to 14 days, scale 0 to 100 (0 no effect, 100 complete control)
Summary of the method: (§3)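 At the 2-leaf stage, floodwater 3 cm deep received the test compound; that depth persisted throughout. Plants scored visually 13 to 14 days on, 0 (no effect) to 100 (complete control), dash indicating no result.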

[26] = test system: ducksalad; experiment: Test D flooded paddy test; format: in vivo, Heteranthera limosa; conditions: 250 g ai/ha, applied to paddy water, visual rating after 13 to 14 days, scale 0 to 100 (0 no effect, 100 complete control)
Summary of the method: as §3

[27] = test system: rice; experiment: Test D flooded paddy test; format: in vivo, Oryza sativa; conditions: 250 g ai/ha, applied to paddy water, visual rating after 13 to 14 days, scale 0 to 100 (0 no effect, 100 complete control)
Summary of the method: as §3

[28] = test system: sedge, umbrella; experiment: Test D flooded paddy test; format: in vivo, Cyperus difformis; conditions: 250 g ai/ha, applied to paddy water, visual rating after 13 to 14 days, scale 0 to 100 (0 no effect, 100 complete control)
Summary of the method: as §3

[29] = 125 g ai/ha, postemergence, 0 to 100 scale, 0 no effect, 100 complete control
[30] = Postemergence, 500 g ai/ha, visual 0 to 100 scale (0 no effect, 100 complete control)

Cc1cccc2c1O[C@@H](C)CN2C(=O)c1cccc(-n2nccn2)c1 [Compound 282]
0: Plant response rating, Blackgrass ([1]; Preemergence, 500 g ai/ha, visual rating after 10 days) | Blackgrass plant response rating ([1]; Test C, preemergence, 125 g ai/ha) | Corn plant response rating ([2]; 500 g ai/ha) | Corn plant response rating ([2]; Test C, 125 g ai/ha) | Foxtail, Giant plant response rating ([3]; 500 g ai/ha) | Foxtail, Giant plant response rating ([3]; Test C, 125 g ai/ha) | Goosegrass plant response rating ([4]; 500 g ai/ha) | Goosegrass plant response rating ([4]; Test C, 125 g ai/ha) | Kochia plant response rating ([5]; 500 g ai/ha) | Kochia plant response rating ([5]; Test C, 125 g ai/ha) | Oat, Wild plant response rating ([6]; 500 g ai/ha) | Oat, Wild plant response rating ([6]; Test C, 125 g ai/ha) | Pigweed, Palmer plant response rating ([7]; 500 g ai/ha) | Pigweed, Palmer plant response rating ([7]; Test C, 125 g ai/ha) | Ragweed plant response rating ([8]; 500 g ai/ha) | Ragweed plant response rating ([8]; Test C, 125 g ai/ha) | Ryegrass, Italian plant response rating ([9]; 500 g ai/ha) | Ryegrass, Italian plant response rating ([9]; Test C, 125 g ai/ha) | Soybean plant response rating ([10]; 500 g ai/ha) | Soybean plant response rating ([10]; Test C, 125 g ai/ha) | Wheat plant response rating ([11]; 500 g ai/ha) | Wheat plant response rating ([11]; Test C, 125 g ai/ha) | Plant response rating, Blackgrass [12, 29] | Plant response rating, Blackgrass [12, 30] | Plant response rating, Corn [13, 29] | Plant response rating, Corn [13, 30] | Plant response rating, Foxtail, Giant [14, 29] | Plant response rating, Foxtail, Giant [14, 30] | Plant response rating, Goosegrass [15, 29] | Plant response rating, Goosegrass [15, 30] | Plant response rating, Kochia [16] | Plant response rating, Oat, Wild [17] | Plant response rating, Pigweed, Palmer [18] | Plant response rating, Ragweed [19] | Plant response rating, Ryegrass, Italian [20] | Plant response rating, Soybean [21] | Plant response rating, Wheat [22] | Plant response rating, Galium [23, 29] | Plant response rating, Galium [23, 30] | Plant response rating, Horseweed [24, 29] | Plant response rating, Horseweed [24, 30] | Plant response rating, Barnyardgrass (Flood) [25] | Plant response rating, Ducksalad (Flood) [26] | Plant response rating, Rice (Flood) [27] | Plant response rating, Sedge, Umbrella (Flood) [28]
